# Paper PMC8222254, “Self-assembly of an anion receptor with metal-dependent kinase inhibition and potent in vitro anti-cancer properties” (Nature Communications, 2021)
# “And” between values parts separate entries of the source, which are not always exact repeats. Identical values can stand only once.
# How the values were obtained:
# Assay in all cases: Kinase inhibition screen, cell-free 33P ATP assay at 10 μM
# Type in all cases: biochemical
# [1] = molecular target: T1, 140 purified human kinases (Homo sapiens, UniProt O15530)
# T1 sequence (O15530 1-556): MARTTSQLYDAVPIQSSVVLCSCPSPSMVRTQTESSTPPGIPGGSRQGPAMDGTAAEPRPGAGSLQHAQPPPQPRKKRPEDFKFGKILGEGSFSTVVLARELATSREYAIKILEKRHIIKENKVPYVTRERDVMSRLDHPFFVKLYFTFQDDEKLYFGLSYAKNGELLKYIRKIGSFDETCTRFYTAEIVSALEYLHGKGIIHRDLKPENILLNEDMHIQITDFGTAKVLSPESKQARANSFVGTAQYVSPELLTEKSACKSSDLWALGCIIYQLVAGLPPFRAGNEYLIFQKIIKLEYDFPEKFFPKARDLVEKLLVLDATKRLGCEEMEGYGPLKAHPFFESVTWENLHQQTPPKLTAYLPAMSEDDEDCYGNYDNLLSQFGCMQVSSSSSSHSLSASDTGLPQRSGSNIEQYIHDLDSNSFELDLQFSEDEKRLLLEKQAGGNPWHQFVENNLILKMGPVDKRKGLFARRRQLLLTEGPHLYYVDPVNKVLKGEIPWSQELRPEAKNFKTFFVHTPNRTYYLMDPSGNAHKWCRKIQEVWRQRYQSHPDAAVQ
# Summary of the method: (§1)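 Radiometric ^33P ATP cell-free format with purified enzymes; both complexes run at 10 μM in duplicate, results plotted on a kinome map via HGNC symbols.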
# [2] = molecular target: T2, 140 purified human kinases (Homo sapiens, UniProt P36897)
# T2 sequence (P36897 34-503): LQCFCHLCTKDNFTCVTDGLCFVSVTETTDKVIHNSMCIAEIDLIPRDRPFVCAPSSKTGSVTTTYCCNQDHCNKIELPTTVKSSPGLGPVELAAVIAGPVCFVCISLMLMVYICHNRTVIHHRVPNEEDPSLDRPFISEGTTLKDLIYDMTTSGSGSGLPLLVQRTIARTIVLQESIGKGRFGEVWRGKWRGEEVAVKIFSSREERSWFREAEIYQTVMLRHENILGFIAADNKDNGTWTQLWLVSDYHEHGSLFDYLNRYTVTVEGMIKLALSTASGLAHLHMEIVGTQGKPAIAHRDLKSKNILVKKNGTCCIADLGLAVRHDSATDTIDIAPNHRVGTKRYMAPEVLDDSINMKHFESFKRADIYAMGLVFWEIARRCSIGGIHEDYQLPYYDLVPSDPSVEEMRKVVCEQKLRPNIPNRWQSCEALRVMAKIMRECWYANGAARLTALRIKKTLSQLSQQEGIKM
# Summary of the method: as §1
# [3] = molecular target: T3, 140 purified human kinases (Homo sapiens, UniProt P53778); conditions: p38g MAPK
# T3 sequence (P53778 1-367): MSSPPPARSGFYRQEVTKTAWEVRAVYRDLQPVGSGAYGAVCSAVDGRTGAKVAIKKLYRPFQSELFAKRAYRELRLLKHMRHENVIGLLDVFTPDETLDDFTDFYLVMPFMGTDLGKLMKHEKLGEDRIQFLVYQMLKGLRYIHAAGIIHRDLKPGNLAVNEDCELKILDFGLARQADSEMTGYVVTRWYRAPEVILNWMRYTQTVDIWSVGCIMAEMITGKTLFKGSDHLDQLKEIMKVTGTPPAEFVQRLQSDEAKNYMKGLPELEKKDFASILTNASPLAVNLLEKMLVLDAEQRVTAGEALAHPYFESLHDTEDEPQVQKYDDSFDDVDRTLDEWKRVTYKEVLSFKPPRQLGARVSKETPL
# Summary of the method: as §1
# [4] = molecular target: T4, 140 purified human kinases (Homo sapiens, UniProt Q15831)
# T4 sequence (Q15831 1-433): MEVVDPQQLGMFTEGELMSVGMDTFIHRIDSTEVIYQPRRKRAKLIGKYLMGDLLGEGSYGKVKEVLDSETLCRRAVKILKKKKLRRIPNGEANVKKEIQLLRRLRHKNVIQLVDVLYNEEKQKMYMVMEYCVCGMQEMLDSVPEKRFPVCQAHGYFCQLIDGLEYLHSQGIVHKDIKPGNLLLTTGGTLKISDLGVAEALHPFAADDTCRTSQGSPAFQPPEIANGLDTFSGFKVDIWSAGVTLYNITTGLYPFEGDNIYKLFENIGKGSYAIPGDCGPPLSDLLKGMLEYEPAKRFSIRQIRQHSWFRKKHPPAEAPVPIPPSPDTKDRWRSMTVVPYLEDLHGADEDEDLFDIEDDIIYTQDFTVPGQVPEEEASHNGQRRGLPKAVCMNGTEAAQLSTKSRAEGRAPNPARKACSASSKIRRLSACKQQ
# Summary of the method: as §1
# [5] = molecular target: 140 purified human kinases (Homo sapiens, UniProt Q16584)
# Summary of the method: as §1
# [6] = molecular target: 140 purified human kinases (Homo sapiens, UniProt Q16644); conditions: for % Activity inhibition Mean / % Activity inhibition Run 1 / % Activity inhibition Run 2 / % Activity remaining Run 1 / % Activity remaining Run 2: 10 µM
# Summary of the method: as §1
# [7] = molecular target: 140 purified human kinases (Homo sapiens, UniProt Q9HBH9)
# Summary of the method: as §1
# 140 purified human kinases (Homo sapiens, UniProt Q9HBH9), sequence (Q9HBH9 whole entry): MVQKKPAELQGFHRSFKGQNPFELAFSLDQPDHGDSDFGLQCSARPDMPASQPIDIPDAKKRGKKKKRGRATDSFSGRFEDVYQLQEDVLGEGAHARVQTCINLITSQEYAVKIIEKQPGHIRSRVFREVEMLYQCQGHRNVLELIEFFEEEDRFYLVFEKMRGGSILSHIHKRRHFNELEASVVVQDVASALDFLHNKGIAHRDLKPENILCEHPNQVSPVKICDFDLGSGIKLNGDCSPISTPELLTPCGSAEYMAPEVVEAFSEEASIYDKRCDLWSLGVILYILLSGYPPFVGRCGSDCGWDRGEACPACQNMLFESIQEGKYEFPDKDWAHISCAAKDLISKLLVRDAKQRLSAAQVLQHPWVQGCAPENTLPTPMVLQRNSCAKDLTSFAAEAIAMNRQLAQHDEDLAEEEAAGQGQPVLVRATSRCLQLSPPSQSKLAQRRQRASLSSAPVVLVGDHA
# 140 purified human kinases (Homo sapiens, UniProt Q16644), sequence (Q16644 whole entry): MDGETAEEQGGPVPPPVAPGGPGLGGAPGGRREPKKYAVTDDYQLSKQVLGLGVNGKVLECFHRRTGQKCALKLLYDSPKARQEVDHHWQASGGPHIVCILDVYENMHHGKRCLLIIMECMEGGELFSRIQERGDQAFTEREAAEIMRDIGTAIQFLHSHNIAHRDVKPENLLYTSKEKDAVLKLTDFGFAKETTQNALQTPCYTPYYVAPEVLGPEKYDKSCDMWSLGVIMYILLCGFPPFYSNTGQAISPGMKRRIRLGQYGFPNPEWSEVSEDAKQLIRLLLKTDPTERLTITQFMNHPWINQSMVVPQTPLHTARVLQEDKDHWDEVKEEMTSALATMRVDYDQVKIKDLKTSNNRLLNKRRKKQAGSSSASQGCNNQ
# 140 purified human kinases (Homo sapiens, UniProt Q16584), sequence (Q16584 whole entry): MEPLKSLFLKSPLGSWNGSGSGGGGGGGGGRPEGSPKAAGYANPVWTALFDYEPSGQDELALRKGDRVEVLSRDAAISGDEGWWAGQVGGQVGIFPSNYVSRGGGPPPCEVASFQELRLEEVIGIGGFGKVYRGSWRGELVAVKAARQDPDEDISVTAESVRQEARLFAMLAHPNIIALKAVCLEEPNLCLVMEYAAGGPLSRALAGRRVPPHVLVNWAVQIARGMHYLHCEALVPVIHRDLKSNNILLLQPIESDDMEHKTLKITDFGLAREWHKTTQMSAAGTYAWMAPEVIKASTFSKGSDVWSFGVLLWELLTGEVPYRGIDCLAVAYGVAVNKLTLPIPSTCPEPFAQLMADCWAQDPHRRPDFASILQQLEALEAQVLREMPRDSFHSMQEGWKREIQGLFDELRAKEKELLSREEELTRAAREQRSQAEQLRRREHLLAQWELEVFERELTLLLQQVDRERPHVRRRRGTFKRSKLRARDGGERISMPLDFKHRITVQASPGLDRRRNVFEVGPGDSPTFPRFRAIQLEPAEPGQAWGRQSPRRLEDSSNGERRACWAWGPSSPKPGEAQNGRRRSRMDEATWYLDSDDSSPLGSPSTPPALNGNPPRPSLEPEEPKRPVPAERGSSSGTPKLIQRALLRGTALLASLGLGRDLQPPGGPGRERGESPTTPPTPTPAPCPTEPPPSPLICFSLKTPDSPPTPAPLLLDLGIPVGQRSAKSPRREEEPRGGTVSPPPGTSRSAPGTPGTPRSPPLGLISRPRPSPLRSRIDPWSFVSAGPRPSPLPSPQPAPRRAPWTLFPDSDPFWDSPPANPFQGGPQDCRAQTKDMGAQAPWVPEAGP
structure (smiles),measurement,setting,value
[Cu+2].[Cu+2].[Cu+2].c1ccc(-c2csc(NCCN(CCNc3nc(-c4ccccn4)cs3)CCNc3nc(-c4ccccn4)cs3)n2)nc1.c1ccc(-c2csc(NCCN(CCNc3nc(-c4ccccn4)cs3)CCNc3nc(-c4ccccn4)cs3)n2)nc1 [[L2Cu3]6+],"% Activation, Mean value",[1]; PDK1,6.45%
same,% Inhibition Run 1,[1]; PDK1,12.4%
same,% Inhibition Run 2,[1]; PDK1,-25.3%
same,"% Inhibition, Mean",[1]; PDK1,-6.45%
same,mean % activity,[1]; PDK1,106%
same,% activity,"[1]; PDK1, Run 1",87.6%
same,% activity,"[1]; PDK1, Run 2",125.3%
same,"% Activation, Mean value",[2]; TGFBR1,30%
same,% Inhibition Run 1,[2]; TGFBR1,-44.2%
same,% Inhibition Run 2,[2]; TGFBR1,-16.7%
same,"% Inhibition, Mean",[2]; TGFBR1,-30%
same,mean % activity,[2]; TGFBR1,130%
same,% activity,"[2]; TGFBR1, Run 1",144.2%
same,% activity,"[2]; TGFBR1, Run 2",116.7%
same,% Activity Run 1,"[2]; TGFBR1, 10 µM",144.20%
same,% Activity Run 2,"[2]; TGFBR1, 10 µM",116.70%
same,"% Activation, Mean value",[3],3.55%
same,% Inhibition Run 1,[3],-1.3%
same,% Inhibition Run 2,[3],-5.8%
same,"% Inhibition, Mean",[3],-3.55%
same,mean % activity,[3],104%
same,% activity,[3]; Run 1,101.3%
same,% activity,[3]; Run 2,105.8%
same,% Inhibition Run 1,[4]; LKB1,22.9%
same,% Inhibition Run 2,[4]; LKB1,29.1%
same,"% Inhibition, Mean",[4]; LKB1,26%
same,mean % activity,[4]; LKB1,74%
same,% activity,"[4]; LKB1, Run 1",77.1%
same,% activity,"[4]; LKB1, Run 2",70.9%
same,% Inhibition Run 1,[5]; MLK3,94.9%
same,% Inhibition Run 2,[5]; MLK3,94.9%
same,"% Inhibition, Mean",[5]; MLK3,95%
same,mean % activity,[5]; MLK3,5%
same,% activity,"[5]; MLK3, Run 1",5.1%
same,% activity,"[5]; MLK3, Run 2",5.1%
same,% Activity inhibition Mean,"[5]; MLK3, 10 µM",94.9%
same,% Activity inhibition Run 1,"[5]; MLK3, 10 µM",94.9%
same,% Activity inhibition Run 2,"[5]; MLK3, 10 µM",94.9%
same,% Activity remaining Run 1,"[5]; MLK3, 10 µM",5.10%
same,% Activity remaining Run 2,"[5]; MLK3, 10 µM",5.10%
same,% Inhibition Run 1,[6]; MAPKAP-K3,98.5%
same,% Inhibition Run 2,[6]; MAPKAP-K3,89.3%
same,"% Inhibition, Mean",[6]; MAPKAP-K3,94%
same,mean % activity,[6]; MAPKAP-K3,6%
same,% activity,"[6]; MAPKAP-K3, Run 1",1.5%
same,% activity,"[6]; MAPKAP-K3, Run 2",10.7%
same,% Activity inhibition Mean,[6]; MAPKAP-K3,93.9%
same,% Activity inhibition Run 1,[6]; MAPKAP-K3,98.5%
same,% Activity inhibition Run 2,[6]; MAPKAP-K3,89.3%
same,% Activity remaining Run 1,[6]; MAPKAP-K3,1.50%
same,% Activity remaining Run 2,[6]; MAPKAP-K3,10.70%
same,% Inhibition Run 1,[7]; MNK2,59.3%
same,% Inhibition Run 2,[7]; MNK2,57.8%
same,"% Inhibition, Mean",[7]; MNK2,59%
same,mean % activity,[7]; MNK2,41%
same,% activity,"[7]; MNK2, Run 1",40.7%
same,% activity,"[7]; MNK2, Run 2",42.2%
CC(=O)[O-].CC(=O)[O-].CC(=O)[O-].CC(=O)[O-].CC(=O)[O-].CC(=O)[O-].[Zn+2].[Zn+2].[Zn+2].c1ccc(-c2csc(NCCN(CCNc3nc(-c4ccccn4)cs3)CCNc3nc(-c4ccccn4)cs3)n2)nc1.c1ccc(-c2csc(NCCN(CCNc3nc(-c4ccccn4)cs3)CCNc3nc(-c4ccccn4)cs3)n2)nc1 [[L2Zn3]6+],"% Activation, Mean value",[1]; PDK1,46%
same,"% Inhibition, Mean",[1]; PDK1,-46%
same,mean % activity,[1]; PDK1,146%
same,% Activity Run 1,"[1]; PDK1, 10 µM",131.0%
same,% Activity Run 2,"[1]; PDK1, 10 µM",160.0%
same,% activity,"[1]; PDK1, duplicate runs",131% and 160%
same,"% Inhibition, Mean",[2]; TGFBR1,41%
same,"% Inhibition, Run 1 / Run 2",[2]; TGFBR1,35% and 48%
same,mean % activity,[2]; TGFBR1,59%
same,% activity,"[2]; TGFBR1, duplicate runs",65% and 53%
same,"% Activation, Mean value",[3],5%
same,"% Inhibition, Mean",[3],-5%
same,"% Inhibition, Run 1 / Run 2",[3],-3.4% and -6.5%
same,mean % activity,[3],105%
same,% activity,[3]; duplicate runs,103% and 107%
same,"% Activation, Mean value",[4]; LKB1,9%
same,"% Inhibition, Mean",[4]; LKB1,-9%
same,mean % activity,[4]; LKB1,109%
same,% activity,"[4]; LKB1, duplicate runs",101% and 116%
same,"% Inhibition, Mean",[5]; MLK3,5%
same,"% Inhibition, Run 1 / Run 2",[5]; MLK3,4% and 6%
same,mean % activity,[5]; MLK3,95%
same,% activity,"[5]; MLK3, duplicate runs",96% and 94%
same,"% Inhibition, Mean",[6]; MAPKAP-K3,93%
same,"% Inhibition, Run 1 / Run 2",[6]; MAPKAP-K3,94% and 92%
same,mean % activity,[6]; MAPKAP-K3,6.6%
same,% Activity inhibition Mean,[6]; MAPKAP-K3,93.0%
same,% Activity inhibition Run 1,[6]; MAPKAP-K3,94%
same,% Activity inhibition Run 2,[6]; MAPKAP-K3,92%
same,% Activity remaining Run 1,[6]; MAPKAP-K3,6%
same,% Activity remaining Run 2,[6]; MAPKAP-K3,8%
same,% activity,"[6]; MAPKAP-K3, duplicate runs",5.6% and 7.6%
same,"% Inhibition, Mean",[7]; MNK2,33%
same,"% Inhibition, Run 1 / Run 2",[7]; MNK2,44% and 22%
same,mean % activity,[7]; MNK2,67%
same,% activity,"[7]; MNK2, duplicate runs",57% and 78%
